The source of these data is patent US9908919B2, “Cyclic apelin derivatives for the treatment of heart failure” (priority 2013, dated 2018).

Where a SMILES comes first, the peptide text is derived from it.

Series [1] can be described thus: Plasma stability assay (LC-MS). Format: in vitro ADME. As to conditions: male, Sprague-Dawley; Table 3; heparinized rat plasma, 37° C., LC-MS percent remaining; read-out: Plasma stability t½. As for the experimental part: Working solution: 1 mg/mL test article is prepared in Milli-Q water
Extraction solution: Methanol:Acetonitrile:Water (1:1:1) with 0.1% Formic Acid and 400 ng/mL Glyburide.
Plasma: Male Sprague-Dawley rat plasma (with sodium heparin), purchased from Bioreclamation LLC (Liverpool, N.Y.).
Test article was prepared in one of the following biological matrices: heparinized rat plasma, heparinized rat whole blood or lung homogenate. The plasma and whole blood sample was prepared at 5000 ng/mL by adding 5 uL of 1 mg/mL Working solution to 995 uL of rat plasma or whole blood. Lung homogenate samples were prepared by diluting lung homogenate to 1 mg/ml protein concentration with phosphate buffered saline (PBS), followed by addition of 5 uL Working solution to 995 uL diluted lung homogenate. The samples were incubated at 37° C. with gentle shaking (65˜75 rpm) in a water bath incubator. At times 0 min, 5 min, 15 min, 30 min, 60 min, 120 and 240 min, 25 uL aliquots of incubation samples were transferred to 96-well plate and immediately protein precipitated using 150 uL of Extraction solution. After completion of incubation experiment, the sample plate was centrifuged at 4000 rpm at 4° C. for 10 minutes. Afterwards, a pipetting device (Tecan Temo) was used to transfer the supernatants to another plate and add 50 uL of water to all samples. The plate was vortexed prior to LC-MS analysis. […]

The conditions of series [2]: rat.
Description: (§1) The calcium flux protocol described above was followed, with the following changes. The peptides were also incubated with 5% rat plasma (Bioreclamation # [sequence]-M, Na Heparin-treated). Readings were taken at time points t0 and t24 hrs, after incubation in a 37° C. tissue culture incubator. Peptide plasma half-life in minutes was estimated by calculating the following: • 1) LN((EC50 at t0)/(EC50 at t24 hrs)), • 2) Calculate slope of value above and • 3) t112=0.693/(slope^2).
Series [3] can be described thus: in vitro. The settings on record: rat, plasma.
Description: as §1

With `CCCC[C@@H]1NC(=O)[C@@H]2CCCN2C(=O)CNC(=O)[C@H](CCCCN)NC(=O)[C@H](Cc2c[nH]cn2)NC(=O)[C@@H](NC(=O)[C@H](CC(C)C)NC(=O)[C@H](CCCNC(=N)N)NC(=O)[C@@H]2CCCN2C(=O)[C@H](CCCNC(=N)N)NC(=O)[C@@H]2CCC(=O)N2)CSSC[C@@H](C(=O)O)NC(=O)[C@@H]2CCCN2C1=O` [Example 8, pE-R-P-R-L-C*-H-K-G-P-Nle-P-C*-OH] (HELM PEPTIDE1{[Glp].R.P.R.L.C.H.K.G.P.[Nle].P.C}$PEPTIDE1,PEPTIDE1,6:R3-13:R3$$$V2.0), the half-life at 5000 ng/mL in series [1] was 145 min. For the same compound, in series [2], the “Surrogate Activity based Plasma stability t½” value is above 1000 min. This compound displayed a half-life in series [3] above 1000 min.
